The record followed here is patent US20240269298A1, “PHOSPHONYL DERIVATIVE, AND COMPOSITION AND PHARMACEUTICAL APPLICATION THEREOF” (XIZANG HAISCO PHARMACEUTICAL CO., LTD., priority 2021, published 2024).

The structures appear in SMILES notation. Where two headings read alike, the source gives them in different places. Some results are limits rather than exact numbers.

Experiment [1] deals with NCI-H1975 (EGFR-L858R-T790M) cells. Put plainly: Inhibitory activity on proliferation of NCI-H1975 (EGFR-L858R-T790M) cells (CTG, 72 h). It is filed as cell-based. Conditions: Homo sapiens. Summed up: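 IC50 values come from S-shaped dose-survival fits of CTG signal expressed as % of vehicle. Compound exposure lasted 72 h at 37 °C with 0.1% DMSO; seeding was 3000 A431 cells/well in DMEM+10% FBS and 1000 NCI-H1975 cells/well in RPMI1640+10% FBS.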

For experiment [2], the system named is A431 (EGFR-WT) cells. Kind of experiment: Inhibitory activity on proliferation of A431 (EGFR-WT) cells (CTG, 72 h). The experiment is classed as cell-based. The conditions noted are these: Homo sapiens, A-431. As for the experimental part:
NCI-H1975 (EGFR-L858R-T790M) and A431 (EGFR-WT) cells were purchased from ATCC and cultured in an incubator at 37° C. with 5% CO2, and the culture mediums were RPMI1640+10% FBS and DMEM+10% FBS, respectively. On the first day, NCI-H1975 (EGFR-L858R-T790M) and A431 (EGFR-WT) cells in the logarithmic phase were collected, and viable cells were counted using an automatic cell analyzer (countstar). The cell suspensions were adjusted with the culture mediums and plated on a 96-well cell culture plate at 1000 cells/well for NCI-H1975 (EGFR-L858R-T790M) cells and at 3000 cells/well for A431 cells. The next day, the culture mediums were aspirated, and 90 μL of fresh culture mediums and 10 μL of the compounds at different concentrations were added to each well, wherein the final concentration of DMSO in each well was 0.1%. The plate was cultured in the incubator at 37° C. with 5% CO2 for 72 hours. After 72 hours of drug treatment, 50 μL of CTG solution (promega, G7572), which was already pre-melted and equilibrated to room temperature, was added to each well, and the mixtures were uniformly mixed for 2 min using a microplate shaker. The plate was placed at room temperature for 10 min, and then […] signal values were measured using a microplate reader (PHERAstar FSX).
Surviving cells % was calculated based on Vsample/Vvehicle control×100%, wherein Vsample was the readout of the drug-treated group, and Vvehicle control was the average value of the vehicle control group. Using the origin 9.2 software and nonlinear regression model, S-shaped dose-survival curves were plotted, and IC50 values were calculated.

Where [3] appears, read: read-out: IC50 (value in brackets).

Usually IC50 stands for the concentration needed to halve the response being measured. For `COc1cc(N2CCC3(CC2)CC(N2CCN(c4ccc5c(c4)C(=O)N(C4CCC(=O)NC4=O)C5=O)CC2)C3)c(-c2cnn(C)c2)cc1Nc1ncc(Br)c(Nc2ccc(-c3ccccc3)cc2P(C)(C)=O)n1` (stereo not drawn) [Compound 83, 5-(4-(7-(4-((5-bromo-4-((3-(dimethylphosphoryl)-[1,1′-biphenyl]-4-yl)amino)pyrimidin-2-yl)amino)-5-methoxy-2-(1-methyl-1H-pyrazol-4-yl)phenyl)-7-azaspiro[3.5]nonan-2-yl)piperazin-1-yl)-2-(2,6-dioxopiperidin-3-yl)isoindoline-1,3-dione], the IC50 was 100 to 500 nM in experiment [1] (read-out: IC50 (class symbol)), 126 nM in experiment [1] (setting [3]) and at least 10000 nM in experiment [2].

As for `COc1cc(N2CCC(F)(CN3CCN(c4ccc5c(c4)C(=O)N(C4CCC(=O)NC4=O)C5=O)CC3)CC2)c(-c2cnn(C)c2)cc1Nc1ncc(Br)c(Nc2ccc(C3CC3)cc2P(C)(C)=O)n1` (stereo not drawn) [Compound 147, 5-(4-((1-(4-((5-bromo-4-((4-cyclopropyl-2-(dimethylphosphoryl)phenyl)amino)pyrimidin-2-yl)amino)-5-methoxy-2-(1-methyl-1H-pyrazol-4-yl)phenyl)-4-fluoropiperidin-4-yl)methyl)piperazin-1-yl)-2-(2,6-dioxopiperidin-3-yl)isoindoline-1,3-dione], the IC50 in experiment [1] (read-out: IC50 (class symbol)) was 100 to 500 nM; in experiment [1] (setting [3]), 103 nM; in experiment [2] it was at least 10000 nM.

Consider `COc1cc(N2CCC(CN3CCC4(CCCN(c5cc6c(cc5F)C(=O)N(C5CCC(=O)NC5=O)C6=O)C4)CC3)CC2)c(-c2cnn(C)c2)cc1Nc1ncc(Br)c(Nc2ccc(-c3ccccc3)cc2P(C)(C)=O)n1` (stereo not drawn) [Compound 61, 5-(9-((1-(4-((5-bromo-4-((3-(dimethylphosphoryl)-[1,1′-biphenyl]-4-yl)amino)pyrimidin-2-yl)amino)-5-methoxy-2-(1-methyl-1H-pyrazol-4-yl)phenyl)piperidin-4-yl)methyl)-2,9-diazaspiro[5.5]undecan-2-yl)-2-(2,6-dioxopiperidin-3-yl)-6-fluoroisoindoline-1,3-dione], for which the figures for the 50% inhibitory concentration (IC50) in experiment [1] (read-out: IC50 (class symbol)), in experiment [1] (setting [3]) and in experiment [2] were 100 to 500 nM, 176 nM and at least 10000 nM, respectively.

In the case of `COc1cc(N2CCC(C3CCN(CC4CCN(c5ccc6c(c5)C(=O)N(C5CCC(=O)NC5=O)C6=O)CC4)CC3)CC2)c(-c2cnn(C)c2)cc1Nc1ncc(Br)c(Nc2ccc(-c3ccccc3)cc2P(C)(C)=O)n1` (stereo not drawn) [Compound 36, 5-(4-((1′-(4-((5-bromo-4-((3-(dimethylphosphoryl)-[1,1′-biphenyl]-4-yl)amino)pyrimidin-2-yl)amino)-5-methoxy-2-(1-methyl-1H-pyrazol-4-yl)phenyl)-[4,4′-bipiperidin]-1-yl)methyl)piperidin-1-yl)-2-(2,6-dioxopiperidin-3-yl)isoindoline-1,3-dione], the IC50 in experiment [1] (read-out: IC50 (class symbol)) was 100 to 500 nM; in experiment [1] (setting [3]), 165 nM; in experiment [2] it was at least 10000 nM.

In the case of `COc1cc(N2CCC(CN3CCN(c4ccc(C(=O)NC5CCC(=O)NC5=O)nc4)CC3)CC2)c(-c2cnn(C)c2)cc1Nc1ncc(Cl)c(Nc2ccc(-c3ccccc3)cc2P(C)(C)=O)n1` (stereo not drawn) [Compound 66, 5-(4-((1-(4-((5-chloro-4-((3-(dimethylphosphoryl)-[1,1′-biphenyl]-4-yl)amino)pyrimidin-2-yl)amino)-5-methoxy-2-(1-methyl-1H-pyrazol-4-yl)phenyl)piperidin-4-yl)methyl)piperazin-1-yl)-N-(2,6-dioxopiperidin-3-yl)picolinamide], the half-maximal inhibitory concentration (IC50) in experiment [1] (read-out: IC50 (class symbol)) is below 100 nM; in experiment [1] (setting [3]) it was 99 nM; in experiment [2], at least 10000 nM.

Regarding `COc1cc(N2CCN(C3CCC4(CC3)CCN(c3ccc5c(c3)C(=O)N(C3CCC(=O)NC3=O)C5=O)CC4)CC2)c(-c2cnn(C)c2)cc1Nc1ncc(Br)c(Nc2ccc(-c3ccccc3)cc2P(C)(C)=O)n1` (stereo not drawn) [Compound 85, 5-(9-(4-(4-((5-bromo-4-((3-(dimethylphosphoryl)-[1,1′-biphenyl]-4-yl)amino)pyrimidin-2-yl)amino)-5-methoxy-2-(1-methyl-1H-pyrazol-4-yl)phenyl)piperazin-1-yl)-3-azaspiro [5.5]undecan-3-yl)-2-(2,6-dioxopiperidin-3-yl)isoindoline-1,3-dione], the figures for the 50% inhibitory concentration (IC50) in experiment [1] (read-out: IC50 (class symbol)), in experiment [1] (setting [3]) and in experiment [2] were below 100 nM, 77 nM and at least 10000 nM, respectively.

Regarding `COc1cc(N2CCC3(CCN(c4ccc5c(c4)C(=O)N(C4CCC(=O)NC4=O)C5=O)CC3)CC2)c(-c2cnn(C)c2)cc1Nc1ncc(Cl)c(Nc2ccc(F)cc2P(C)(C)=O)n1` (stereo not drawn) [Compound 162, 5-(9-(4-((5-chloro-4-((2-(dimethylphosphoryl)-4-fluorophenyl)amino)pyrimidin-2-yl)amino)-5-methoxy-2-(1-methyl-1H-pyrazol-4-yl)phenyl)-3,9-diazaspiro[5.5]undecan-3-yl)-2-(2,6-dioxopiperidin-3-yl)isoindoline-1,3-dione], the IC50 in experiment [1] (read-out: IC50 (class symbol)) is 100 to 500 nM; in experiment [1] (setting [3]), 134 nM; in experiment [2] it was at least 10000 nM.

In the case of `COc1cc(N2CCN(C3CCN(CC4CCN(c5cc6c(cc5F)C(=O)N(C5CCC(=O)NC5=O)C6=O)CC4)CC3)CC2)c(-c2cnn(C)c2)cc1Nc1ncc(Cl)c(Nc2ccc(-c3ccccc3)cc2P(C)(C)=O)n1` (stereo not drawn) [Compound 50, 5-(4-((4-(4-(4-((5-chloro-4-((3-(dimethylphosphoryl)-[1,1′-biphenyl]-4-yl)amino)pyrimidin-2-yl)amino)-5-methoxy-2-(1-methyl-1H-pyrazol-4-yl)phenyl)piperazin-1-yl)piperidin-1-yl)methyl)piperidin-1-yl)-2-(2,6-dioxopiperidin-3-yl)-6-fluoroisoindoline-1,3-dione], the IC50 in experiment [1] (read-out: IC50 (class symbol)) was 100 to 500 nM; in experiment [1] (setting [3]), 133 nM; in experiment [2], at least 10000 nM.

With `COc1cc(N2CCC3(CCN(c4ccc5c(c4)C(=O)N(C4CCC(=O)NC4=O)C5=O)CC3)CC2)c(-c2cnn(C)c2)cc1Nc1ncc(Br)c(Nc2ccc(-c3ccccc3)cc2P(C)(C)=O)n1` (stereo not drawn) [Compound 79, 5-(9-(4-((5-bromo-4-((3-(dimethylphosphoryl)-[1,1′-biphenyl]-4-yl)amino)pyrimidin-2-yl)amino)-5-methoxy-2-(1-methyl-1H-pyrazol-4-yl)phenyl)-3,9-diazaspiro[5.5]undecan-3-yl)-2-(2,6-dioxopiperidin-3-yl)isoindoline-1,3-dione], the IC50 in experiment [1] (read-out: IC50 (class symbol)) was 100 to 500 nM; in experiment [1] (setting [3]), 314 nM; in experiment [2], at least 10000 nM.

Take `COc1cc(N2CCC(N3CCN(CC4(F)CCN(c5ccc6c(c5)C(=O)N(C5CCC(=O)NC5=O)C6=O)CC4)CC3)CC2)c(-c2cnn(C)c2)cc1Nc1ncc(Br)c(Nc2ccc(-c3ccccc3)cc2P(C)(C)=O)n1` (stereo not drawn) [Trifluoroacetate of compound 86, 5-(4-((4-(1-(4-((5-bromo-4-((3-(dimethylphosphoryl)-[1,1′-biphenyl]-4-yl)amino)pyrimidin-2-yl)amino)-5-methoxy-2-(1-methyl-1H-pyrazol-4-yl)phenyl)piperidin-4-yl)piperazin-1-yl)methyl)-4-fluoropiperidin-1-yl)-2-(2,6-dioxopiperidin-3-yl)isoindoline-1,3-dione]: the 50% inhibitory concentration (IC50) in experiment [1] (read-out: IC50 (class symbol)) is below 100 nM; in experiment [1] (setting [3]), 77 nM; in experiment [2], at least 10000 nM.

For `COc1cc(N2CCN(CC3CCN(c4ccc5c(c4)C(=O)N(C4CCC(=O)NC4=O)C5=O)CC3)CC2)c(-c2cnn(C)c2)cc1Nc1ncc(Cl)c(Nc2ccc(C3CC3)cc2P(C)(C)=O)n1` (stereo not drawn) [Compound 126, 5-(4-((4-(4-((5-chloro-4-((4-cyclopropyl-2-(dimethylphosphoryl)phenyl)amino)pyrimidin-2-yl)amino)-5-methoxy-2-(1-methyl-1H-pyrazol-4-yl)phenyl)piperazin-1-yl)methyl)piperidin-1-yl)-2-(2,6-dioxopiperidin-3-yl)isoindoline-1,3-dione], the IC50 in experiment [1] (read-out: IC50 (class symbol)) is below 100 nM; in experiment [1] (setting [3]), 39 nM; in experiment [2], at least 10000 nM.

In the case of `CCn1cc(-c2cc(Nc3ncc(Br)c(Nc4ccc(-c5ccccc5)cc4P(C)(C)=O)n3)c(OC)cc2N2CCC(CN3CCN(c4ccc5c(c4)C(=O)N(C4CCC(=O)NC4=O)C5=O)CC3)CC2)cn1` (stereo not drawn) [Compound 111, 5-(4-((1-(4-((5-bromo-4-((3-(dimethylphosphoryl)-[1,1′-biphenyl]-4-yl)amino)pyrimidin-2-yl)amino)-2-(1-ethyl-1H-pyrazol-4-yl)-5-methoxyphenyl)piperidin-4-yl)methyl)piperazin-1-yl)-2-(2,6-dioxopiperidin-3-yl)isoindoline-1,3-dione], the results for the half-maximal inhibitory concentration (IC50) in experiment [1] (read-out: IC50 (class symbol)), in experiment [1] (setting [3]) and in experiment [2] were 100 to 500 nM, 209 nM and at least 10000 nM, respectively.
